Measurements from ChEMBL document CHEMBL3792378, “Design, synthesis and cytotoxicity of pyrano[4,3-b]indol-1(5H)-ones: A hybrid pharmacophore approach via gold catalyzed cyclization” (Bioorg Med Chem Lett, 2016).

What follows are compounds tested on HeLa (assay: Cytotoxicity against human HeLa cells incubated for 48 hrs by MTT assay).
Format: functional, cell-based
With CCn1c2ccccc2c2c(=O)oc(-c3ccccc3)cc21 the IC50 was 1.41 µM. Compound CCCCc1cc2c(c(=O)o1)c1ccccc1n2C has an IC50 of 1.92 µM. CCCCc1cc2c(c(=O)o1)c1ccccc1n2CC showed an IC50 of 1.89 µM. CCCCCc1cc2c(c(=O)o1)c1ccccc1n2Cc1ccccc1 gave an IC50 of 1.63 µM. Compound O=c1oc(-c2ccccc2)cc2c1c1ccccc1n2Cc1ccccc1 has an IC50 of 0.69 µM. In the case of O=c1oc(-c2ccccc2)cc2[nH]c3ccccc3c12, the IC50 is reported as 2.55 µM. Compound CC(C)(O)c1cc2c(c(=O)o1)c1ccccc1n2Cc1ccccc1 has an IC50 of 2.02 µM. CCCCn1c2ccccc2c2c(=O)oc(-c3ccccc3)cc21 gave an IC50 of 1.11 µM. Work on O=c1oc(CCCO)cc2c1c1ccccc1n2Cc1ccccc1 yielded an IC50 of 2.25 µM. In the case of Cn1c2ccccc2c2c(=O)oc(-c3ccccc3)cc21, the IC50 is reported as 1.24 µM. CCCCc1cc2c(c(=O)o1)c1ccccc1n2Cc1ccccc1 showed an IC50 of 1.75 µM.
